According to patent US20080057134A1, “Antifungal compositions and method” (AgION Technologies, Inc., priority 2006, published 2008):

System: Aspergillus niger
Assay: Direct inoculation fungal testing of coated filter paper (modified ASTM G21)
Assay type: cell-based
Conditions: text summary of Tables 1 and 2, Aspergillus niger

With `Cc1cc(CC(C)CC(C)(C)C)n(O)c(=O)c1.NCCO` (stereo not shown) [picrotone olamine, monoethanolamine salt of hydroxymethyl trimethylpentyl pyridone] as the compound, how does the “antifungal properties / bioefficacy in words” value read?
Its value is “excellent to good antifungal properties”.
